Each structure is given as a SMILES string.

In general, Ki refers to the dissociation constant of the complex between target and ligand, obtained from inhibition or displacement. Higher therefore signals lower affinity.

The assay has as its target T1, xanthine oxidase (XOD) (Bos taurus, UniProt P80457).
T1 construct: gene XDH; purified bovine liver XOD
The experiment in a line: enzyme kinetics, Lineweaver-Burk analysis with purified bovine liver XOD. The format is biochemical.

T1 sequence (P80457 2-1332): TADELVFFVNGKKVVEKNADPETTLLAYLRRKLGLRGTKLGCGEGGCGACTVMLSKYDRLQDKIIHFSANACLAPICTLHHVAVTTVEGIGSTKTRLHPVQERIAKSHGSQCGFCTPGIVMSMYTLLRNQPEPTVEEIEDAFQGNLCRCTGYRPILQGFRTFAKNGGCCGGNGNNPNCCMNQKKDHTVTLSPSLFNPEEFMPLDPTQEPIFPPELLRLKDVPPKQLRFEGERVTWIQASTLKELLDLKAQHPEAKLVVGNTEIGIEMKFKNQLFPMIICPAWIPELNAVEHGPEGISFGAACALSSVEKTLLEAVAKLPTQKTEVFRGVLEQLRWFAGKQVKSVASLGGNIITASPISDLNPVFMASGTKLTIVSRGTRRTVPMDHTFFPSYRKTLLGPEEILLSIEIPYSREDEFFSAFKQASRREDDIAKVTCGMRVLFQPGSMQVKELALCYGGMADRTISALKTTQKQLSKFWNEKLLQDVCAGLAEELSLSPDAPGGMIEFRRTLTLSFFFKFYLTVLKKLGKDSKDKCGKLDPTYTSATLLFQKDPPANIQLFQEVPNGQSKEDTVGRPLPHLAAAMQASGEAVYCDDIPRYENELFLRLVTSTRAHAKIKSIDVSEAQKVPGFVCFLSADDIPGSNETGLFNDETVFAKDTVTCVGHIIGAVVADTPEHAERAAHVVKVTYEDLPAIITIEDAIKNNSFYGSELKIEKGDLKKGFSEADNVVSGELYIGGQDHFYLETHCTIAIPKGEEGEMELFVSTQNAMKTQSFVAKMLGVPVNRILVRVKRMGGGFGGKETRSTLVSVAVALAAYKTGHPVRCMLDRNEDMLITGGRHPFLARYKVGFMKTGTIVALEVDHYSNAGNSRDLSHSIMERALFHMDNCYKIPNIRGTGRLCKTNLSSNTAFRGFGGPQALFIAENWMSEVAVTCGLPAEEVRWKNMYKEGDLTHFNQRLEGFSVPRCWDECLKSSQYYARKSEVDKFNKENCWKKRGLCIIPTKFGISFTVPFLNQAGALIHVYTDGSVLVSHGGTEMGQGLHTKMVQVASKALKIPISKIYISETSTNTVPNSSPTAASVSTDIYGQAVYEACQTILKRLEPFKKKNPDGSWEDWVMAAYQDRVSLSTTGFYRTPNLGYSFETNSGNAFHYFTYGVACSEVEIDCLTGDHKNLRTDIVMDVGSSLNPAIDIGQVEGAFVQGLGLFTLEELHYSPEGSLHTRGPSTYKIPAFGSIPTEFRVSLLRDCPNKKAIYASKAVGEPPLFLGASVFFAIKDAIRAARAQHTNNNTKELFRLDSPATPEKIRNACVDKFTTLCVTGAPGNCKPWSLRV

For the compound `Cn1c(=O)c2c(ncn2C)n(C)c1=O` [caffeine, 1,3,7-trimethylxanthine], the affinity corresponds to a Ki of 4.02 mM.

The record behind these values is paper PMC4745685, “Caffeine affects the biological responses of human hematopoietic cells of myeloid lineage via downregulation of the mTOR pathway and xanthine oxidase activity” (Oncotarget, 2015).
